Laboratory results from ChEMBL document CHEMBL1909046, “DrugMatrix in vitro pharmacology data”.

How the values were obtained:
[1] = target: T1, Neuropeptide Y receptor type 1 (Homo sapiens, UniProt P25929); format: cell membranes, Membrane; settings: sk-n-mc; also: in other assays of this panel Not Active means under 50% inhibition at 10 µM
T1 sequence (P25929 whole entry): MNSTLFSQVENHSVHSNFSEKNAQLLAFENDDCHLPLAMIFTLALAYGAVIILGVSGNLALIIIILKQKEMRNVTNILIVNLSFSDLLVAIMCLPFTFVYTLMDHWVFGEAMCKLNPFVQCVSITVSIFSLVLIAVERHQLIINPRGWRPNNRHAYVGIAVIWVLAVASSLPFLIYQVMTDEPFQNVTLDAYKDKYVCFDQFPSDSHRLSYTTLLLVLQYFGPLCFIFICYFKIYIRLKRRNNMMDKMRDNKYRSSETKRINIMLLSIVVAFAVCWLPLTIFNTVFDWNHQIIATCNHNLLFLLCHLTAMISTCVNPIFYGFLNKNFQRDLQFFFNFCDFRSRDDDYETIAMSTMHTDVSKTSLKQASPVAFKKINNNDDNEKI

Adenosine receptor A2a = Adenosine receptor A2a (Homo sapiens, UniProt P29274); assay: DRUGMATRIX: Adenosine A2A radioligand binding (ligand: […]); format: cell membranes, HEK293, Membrane; settings: Not Active = under 50% inhibition at 10 µM
Sequence of Adenosine receptor A2a (P29274 whole entry): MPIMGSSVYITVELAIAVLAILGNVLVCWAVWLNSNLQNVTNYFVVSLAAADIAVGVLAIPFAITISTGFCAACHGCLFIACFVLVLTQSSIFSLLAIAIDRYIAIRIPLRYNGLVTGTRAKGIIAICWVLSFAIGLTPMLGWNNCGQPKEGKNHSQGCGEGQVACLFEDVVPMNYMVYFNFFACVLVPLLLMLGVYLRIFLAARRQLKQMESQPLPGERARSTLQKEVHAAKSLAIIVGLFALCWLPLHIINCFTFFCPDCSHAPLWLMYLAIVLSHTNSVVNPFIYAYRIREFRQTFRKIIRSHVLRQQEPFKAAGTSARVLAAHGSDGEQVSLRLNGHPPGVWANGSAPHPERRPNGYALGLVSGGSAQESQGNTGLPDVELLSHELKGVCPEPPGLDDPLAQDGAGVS

Acetylcholinesterase = Acetylcholinesterase (Homo sapiens, UniProt P22303); assay: DRUGMATRIX: Acetylcholinesterase enzyme inhibition (substrate: acetylthiocholine); format: cell-based, HEK293; settings: Not Active = under 50% inhibition at 10 µM
Sequence of Acetylcholinesterase (P22303 whole entry): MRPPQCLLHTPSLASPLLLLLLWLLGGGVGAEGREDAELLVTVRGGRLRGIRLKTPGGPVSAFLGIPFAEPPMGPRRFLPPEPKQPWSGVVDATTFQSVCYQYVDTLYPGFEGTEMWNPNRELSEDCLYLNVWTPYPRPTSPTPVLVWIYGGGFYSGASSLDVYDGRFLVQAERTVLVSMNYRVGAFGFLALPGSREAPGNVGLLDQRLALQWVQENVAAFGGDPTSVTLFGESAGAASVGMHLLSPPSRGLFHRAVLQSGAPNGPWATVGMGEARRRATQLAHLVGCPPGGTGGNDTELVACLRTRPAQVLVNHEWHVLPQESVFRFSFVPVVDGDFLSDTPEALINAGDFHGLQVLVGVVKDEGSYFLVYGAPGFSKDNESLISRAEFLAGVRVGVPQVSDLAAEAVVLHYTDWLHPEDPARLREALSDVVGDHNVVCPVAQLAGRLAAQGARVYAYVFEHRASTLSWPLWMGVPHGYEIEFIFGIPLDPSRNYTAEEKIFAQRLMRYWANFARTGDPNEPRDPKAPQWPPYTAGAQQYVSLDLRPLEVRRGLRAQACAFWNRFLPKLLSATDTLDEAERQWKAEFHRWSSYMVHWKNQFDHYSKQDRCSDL

[2] = target: Voltage-gated inwardly rectifying potassium channel KCNH2 (Homo sapiens, UniProt Q12809); settings: hek293; also: in other assays of this panel Not Active means under 50% inhibition at 10 µM
Sequence of Voltage-gated inwardly rectifying potassium channel KCNH2 (Q12809 whole entry): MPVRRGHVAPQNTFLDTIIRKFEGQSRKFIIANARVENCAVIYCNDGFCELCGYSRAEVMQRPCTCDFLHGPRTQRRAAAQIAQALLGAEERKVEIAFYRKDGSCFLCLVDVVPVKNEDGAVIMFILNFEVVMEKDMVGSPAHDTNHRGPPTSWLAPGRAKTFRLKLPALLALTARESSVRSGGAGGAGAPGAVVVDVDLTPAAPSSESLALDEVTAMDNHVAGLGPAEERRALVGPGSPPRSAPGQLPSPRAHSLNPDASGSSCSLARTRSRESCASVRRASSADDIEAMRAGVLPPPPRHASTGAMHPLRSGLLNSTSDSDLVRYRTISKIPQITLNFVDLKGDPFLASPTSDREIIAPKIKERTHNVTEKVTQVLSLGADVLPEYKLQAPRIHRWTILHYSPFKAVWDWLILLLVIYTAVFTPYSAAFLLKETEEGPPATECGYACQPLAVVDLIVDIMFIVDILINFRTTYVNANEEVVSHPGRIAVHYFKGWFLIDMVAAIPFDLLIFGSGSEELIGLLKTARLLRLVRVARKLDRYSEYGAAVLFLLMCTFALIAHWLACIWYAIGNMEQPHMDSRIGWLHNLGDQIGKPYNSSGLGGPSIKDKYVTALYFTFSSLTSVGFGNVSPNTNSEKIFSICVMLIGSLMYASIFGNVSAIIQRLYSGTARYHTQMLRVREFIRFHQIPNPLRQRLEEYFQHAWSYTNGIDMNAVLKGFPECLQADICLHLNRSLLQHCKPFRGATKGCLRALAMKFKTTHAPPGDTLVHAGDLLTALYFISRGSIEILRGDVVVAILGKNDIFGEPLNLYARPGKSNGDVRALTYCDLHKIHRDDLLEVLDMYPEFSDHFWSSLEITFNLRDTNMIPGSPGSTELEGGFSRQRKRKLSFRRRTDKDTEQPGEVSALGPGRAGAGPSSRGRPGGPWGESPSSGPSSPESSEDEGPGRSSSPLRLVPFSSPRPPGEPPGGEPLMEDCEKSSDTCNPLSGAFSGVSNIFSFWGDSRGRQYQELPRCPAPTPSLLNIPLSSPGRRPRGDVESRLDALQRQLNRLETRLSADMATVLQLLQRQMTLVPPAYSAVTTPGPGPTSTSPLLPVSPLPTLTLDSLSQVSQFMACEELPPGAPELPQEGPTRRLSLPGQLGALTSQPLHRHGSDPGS

[3] = target: T2, Muscarinic acetylcholine receptor M2 (Homo sapiens, UniProt P08172); format: cell membranes, CHO-K1, Membrane; settings: cho-k1; also: in other assays of this panel Not Active means under 50% inhibition at 10 µM
T2 sequence (P08172 whole entry): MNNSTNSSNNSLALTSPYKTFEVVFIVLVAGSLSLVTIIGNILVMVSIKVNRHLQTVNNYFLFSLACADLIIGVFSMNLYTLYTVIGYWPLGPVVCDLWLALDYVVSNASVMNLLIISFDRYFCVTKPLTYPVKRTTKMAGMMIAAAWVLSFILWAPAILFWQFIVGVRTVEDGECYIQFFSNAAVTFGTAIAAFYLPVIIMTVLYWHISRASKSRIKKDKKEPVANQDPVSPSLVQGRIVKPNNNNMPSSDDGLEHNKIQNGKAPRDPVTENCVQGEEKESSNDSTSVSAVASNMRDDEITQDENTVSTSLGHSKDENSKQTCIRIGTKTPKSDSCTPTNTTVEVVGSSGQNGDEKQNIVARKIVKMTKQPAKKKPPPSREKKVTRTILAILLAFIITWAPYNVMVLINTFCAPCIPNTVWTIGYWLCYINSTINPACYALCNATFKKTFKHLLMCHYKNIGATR

Neutrophil elastase = target: T3, Neutrophil elastase (Homo sapiens, UniProt P08246); format: tissue-based;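 also: inhibition of neutrophil elastase enzyme activity, measured with a p-nitroanilide-linked peptide substrate; in other assays of this panel Not Active means under 50% inhibition at 10 µM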
T3 sequence (P08246 whole entry): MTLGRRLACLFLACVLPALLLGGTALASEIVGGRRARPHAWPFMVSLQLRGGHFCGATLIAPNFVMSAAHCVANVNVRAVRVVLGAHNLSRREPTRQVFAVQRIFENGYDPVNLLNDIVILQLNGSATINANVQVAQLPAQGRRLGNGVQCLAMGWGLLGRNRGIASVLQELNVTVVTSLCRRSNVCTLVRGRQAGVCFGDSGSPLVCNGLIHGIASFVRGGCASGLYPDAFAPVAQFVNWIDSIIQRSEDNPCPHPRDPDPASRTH

[4] = target: Delta-type opioid receptor (Homo sapiens, UniProt P41143); format: cell membranes, HEK293, Membrane; settings: hek293; also: in other assays of this panel Not Active means under 50% inhibition at 10 µM
Sequence of Delta-type opioid receptor (P41143 whole entry): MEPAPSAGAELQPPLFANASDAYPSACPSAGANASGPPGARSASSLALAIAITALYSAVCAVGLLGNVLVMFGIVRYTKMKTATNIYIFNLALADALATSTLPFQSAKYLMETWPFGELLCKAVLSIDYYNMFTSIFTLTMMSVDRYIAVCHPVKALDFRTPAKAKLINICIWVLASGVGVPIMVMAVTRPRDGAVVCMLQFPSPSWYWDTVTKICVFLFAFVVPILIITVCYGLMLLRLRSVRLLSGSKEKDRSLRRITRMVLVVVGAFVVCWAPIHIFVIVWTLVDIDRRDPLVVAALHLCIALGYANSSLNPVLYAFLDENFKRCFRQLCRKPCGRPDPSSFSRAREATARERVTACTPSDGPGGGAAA

Compound	IC50 [1]	IC50 (Adenosine receptor A2a; hek293)	IC50 (Acetylcholinesterase; hek293)	IC50 [2]	Ki [2]	IC50 [3]	IC50 (Neutrophil elastase)	IC50 [4]	IC50 (Adenosine receptor A2a; read-out: IC50) [µM]	Ki (Adenosine receptor A2a; read-out: Ki) [µM]	Ki [1]	Ki (Adenosine receptor A2a; hek293)	Ki (Acetylcholinesterase; hek293)	Ki [3]	Ki (Neutrophil elastase)	Ki [4]	IC50 (Acetylcholinesterase; read-out: IC50) [µM]
CCS(=O)(=O)CCn1c([N+](=O)[O-])cnc1C [TINIDAZOLE]	Not Active	Not Active	Not Active	Not Active	Not Active	Not Active	Not Active	Not Active									
Nc1nc2c(c(=O)[nH]1)N(C=O)C(CNc1ccc(C(=O)N[C@@H](CCC(=O)O)C(=O)O)cc1)CN2 (some centres undefined) [LEUCOVORIN]	Not Active	Not Active	Not Active	Not Active	Not Active	Not Active	Not Active	Not Active									
CC(=O)O[C@H]1C[C@@H]2CC[C@@H]3[C@H](CC[C@@]4(C)[C@H]3C[C@H]([N+]3(C)CCCCC3)[C@@H]4OC(C)=O)[C@@]2(C)C[C@@H]1N1CCCCC1.[Br-] [VECURONIUM BROMIDE]	Not Active	Not Active	Not Active	Not Active	Not Active	Not Active	Not Active	Not Active									
C[C@@H](O)[C@H]1C(=O)N2C(C(=O)O)=C(S[C@@H]3CN[C@H](C(=O)N(C)C)C3)[C@H](C)[C@H]12 [MEROPENEM]	Not Active	Not Active	Not Active	Not Active	Not Active	Not Active	Not Active	Not Active									
Cc1cn([C@H]2C[C@H](N=[N+]=[N-])[C@@H](CO)O2)c(=O)[nH]c1=O [ZIDOVUDINE]	Not Active	Not Active	Not Active	Not Active	Not Active	Not Active	Not Active	Not Active									
COc1cc(N)nc2[nH]c(-c3ccc(F)cc3)c(-c3ccncc3)c12	Not Active		Not Active	Not Active	Not Active	Not Active	Not Active	Not Active	1.03	0.58							
CN1C2CCCC1CC(NC(=O)c1nn(C)c3ccccc13)C2 (centres undefined) [GRANISETRON]	Not Active	Not Active	Not Active	Not Active	Not Active	Not Active	Not Active	Not Active									
THIMEROSAL	Not Active	Not Active	Not Active	Not Active	Not Active	Not Active	Not Active	Not Active			Not Active	Not Active	Not Active	Not Active	Not Active	Not Active	
C[C@]12CC[C@H]3[C@@H](CCC4=CC(=O)CC[C@@]43C)[C@@H]1CC[C@@H]2O [TESTOSTERONE]	Not Active	Not Active	Not Active			Not Active	Not Active	Not Active									
CNS(=O)(=O)Cc1ccc2[nH]cc(CCN(C)C)c2c1	Not Active	Not Active	Not Active	Not Active	Not Active	Not Active	Not Active	Not Active									
CO[C@H]1C[C@@H]2CC[C@@H](C)[C@@](O)(O2)C(=O)C(=O)N2CCCC[C@H]2C(=O)O[C@H]([C@H](C)C[C@@H]2CC[C@@H](O)[C@H](OC)C2)CC(=O)[C@H](C)/C=C(\C)[C@@H](O)[C@@H](OC)C(=O)[C@H](C)C[C@H](C)/C=C/C=C/C=C/1C [SIROLIMUS]	Not Active	Not Active	Not Active	Not Active	Not Active	Not Active	Not Active	Not Active									
CC(C)OC(=O)C(C)(C)Oc1ccc(C(=O)c2ccc(Cl)cc2)cc1 [FENOFIBRATE]	Not Active	Not Active		Not Active	Not Active	Not Active	Not Active	Not Active									15.6
CN(CCOc1ccc(CC2SC(=O)NC2=O)cc1)c1ccccn1 (centres undefined) [ROSIGLITAZONE]	Not Active	Not Active	Not Active	Not Active	Not Active	Not Active	Not Active	Not Active									
